According to patent US20260223850A1, “SUBSTITUTED PYRROLIDONE COMPOUND, PREPARATION METHOD THEREFOR, COMPOSITION AND APPLICATION THEREOF” (QINGDAO KINGAGROOT CHEMICAL COMPOUND CO., LTD., priority 2023, published 2026):

How the values were obtained:
Assay type in all cases: in vivo
Conditions in all cases: 120 g a.i./ha, seedling stage sealing, 15 days, fresh weight control rate
Huaidao (rice cultivar) = assay: Seedling stage sealing experiment for water-seeding (crop safety)
Excerpt: (§1) The activity level criteria for plant damage (i.e., growth control rate) are as follows: • Level 9: completely dead; • Level 8: growth control rate greater than or equal to 90% and less than 100%; • Level 7: growth control rate greater than or equal to 80% and less than 90%; • Level 6: growth control rate greater than or equal to 70% and less than 80%; • Level 5: growth control rate greater than or equal to 50% and less than 70%; • Level 4: growth control rate greater than or equal to 30% and less than 50%; • Level 3: growth control rate greater than or equal to 20% and less than 30%; • Level 2: growth control rate greater than or equal to 10% and less than 20%; • Level 1: growth control rate less than 10%; • Level 0: no effect.
(§2) The above growth control rates are fresh weight control rates.
(§3) Echinochloa phyllopogon, Digitaria sanguinalis, Huaidao (rice cultivar), etc. were broadcasted on the surface of nutrition bowls filled with soil and fully covered by soil. The foregoing well-prepared nutrition bowls were then placed in a cultivation box with water filled to a suitable height to keep the soil in the nutrition bowls moist. A test compound of the present invention was individually dissolved with acetone, then diluted into solution of a certain concentration using a certain amount of water, and sprayed using a spray tower. The plants were placed on a greenhouse seedbed and cultured for 15 days, and the experimental results were then collected. The compound was applied at 120, 60, 30 and 15 g a.i./ha in triplicate, and the results were averaged.

Echinochloa phyllopogon = assay: Seedling stage sealing experiment for water-seeding
Excerpt: as §1, §2, §3

Echinochloa crusgalli = assay: as above
Excerpt: as §1, §2, §3

| Structure (SMILES) | Huaidao (rice cultivar) plant damage level (Huaidao (rice cultivar)) | Echinochloa phyllopogon activity level (growth control rate) (Echinochloa phyllopogon) | Echinochloa crusgalli activity level (growth control rate) (Echinochloa crusgalli) |
| --- | --- | --- | --- |
| Cc1c(NC(=O)[C@H]2C(=O)N(C)C[C@@H]2c2cccc(C(F)(F)F)c2)cnn1C [189′] | 0 | 9 | 9 |
| COC(=O)c1c(NC(=O)[C@H]2C(=O)N(C)C[C@@H]2c2cccc(C(F)(F)F)c2)cnn1C [199′] | 0 | 6 (Level 6: growth control rate greater than or equal to 70% and less than 80%) | 6 (Level 6: growth control rate greater than or equal to 70% and less than 80%) |
| Cc1nn(C(F)F)c(Cl)c1NC(=O)[C@H]1C(=O)N(C)C[C@@H]1c1cccc(C(F)(F)F)c1 [209′] | 0 | 6 (Level 6: growth control rate greater than or equal to 70% and less than 80%) | 7 (Level 7: growth control rate greater than or equal to 80% and less than 90%) |
| COc1cccc([C@H]2CN(C)C(=O)[C@@H]2C(=O)Nc2cnn(C(F)F)c2Cl)c1 [215′] | 0 | 8 (Level 8: growth control rate greater than or equal to 90% and less than 100%) | 9 |
| CCc1ccc([C@H]2CN(C)C(=O)[C@@H]2C(=O)Nc2cnn(C)c2Cl)cc1 [244′] | 0 | 7 (Level 7: growth control rate greater than or equal to 80% and less than 90%) | 9 |
| Cc1cc(F)cc([C@H]2CN(C)C(=O)[C@@H]2C(=O)Nc2cnn(C)c2Cl)c1 [264′] | 0 | 9 | 9 |
| Cc1cc(C)cc([C@H]2CN(C)C(=O)[C@@H]2C(=O)Nc2cnn(CC(F)(F)F)c2Cl)c1 [268′] | 0 | 6 (Level 6: growth control rate greater than or equal to 70% and less than 80%) | 7 (Level 7: growth control rate greater than or equal to 80% and less than 90%) |
| Cc1cc(C)cc([C@H]2CN(C)C(=O)[C@@H]2C(=O)Nc2cnn(C)c2F)c1 [271′] | 0 | 9 | 9 |
| Cc1cc(C)cc([C@H]2CN(C)C(=O)[C@@H]2C(=O)Nc2cnn(C)c2C)c1 [272′] | 0 | 7 (Level 7: growth control rate greater than or equal to 80% and less than 90%) | 9 |
| CCc1c(NC(=O)[C@H]2C(=O)N(C)C[C@@H]2c2cc(C)cc(C)c2)cnn1C [273′] | 0 | 6 (Level 6: growth control rate greater than or equal to 70% and less than 80%) | 9 |
| C=C(C)c1c(NC(=O)[C@H]2C(=O)N(C)C[C@@H]2c2cc(C)cc(C)c2)cnn1C [276′] | 0 | 6 (Level 6: growth control rate greater than or equal to 70% and less than 80%) | 9 |
| CN1C[C@H](c2cc(Br)cc(C(F)(F)F)c2)[C@@H](C(=O)Nc2cnn(C)c2Cl)C1=O [294′] | 0 | 7 (Level 7: growth control rate greater than or equal to 80% and less than 90%) | 9 |
| COc1cc(OC)cc([C@H]2CN(C)C(=O)[C@@H]2C(=O)Nc2cnn(C)c2Cl)c1 [302′] | 0 | 6 (Level 6: growth control rate greater than or equal to 70% and less than 80%) | 9 |
| Cc1ccc([C@H]2CN(C)C(=O)[C@@H]2C(=O)Nc2cnn(C)c2Cl)cc1C [314′] | 0 | 9 | 9 |
| CN1C[C@H](c2cc(Cl)c(Cl)c(C(F)(F)F)c2)[C@@H](C(=O)Nc2cnn(C)c2Cl)C1=O [326′] | 0 | 7 (Level 7: growth control rate greater than or equal to 80% and less than 90%) | 8 (Level 8: growth control rate greater than or equal to 90% and less than 100%) |
| CCc1ccc([C@H]2CN(C)C(=O)[C@@H]2C(=O)Nc2cnn(C)c2Cl)s1 [338′] | 0 | 6 (Level 6: growth control rate greater than or equal to 70% and less than 80%) | 9 |

| Structure (SMILES) | Huaidao (rice cultivar) plant damage level (Huaidao (rice cultivar)) | Echinochloa phyllopogon activity level (growth control rate) (Echinochloa phyllopogon) | Echinochloa crusgalli activity level (growth control rate) (Echinochloa crusgalli) |
| --- | --- | --- | --- |
| COCc1c(NC(=O)[C@H]2C(=O)N(C)C[C@@H]2c2cccc(C)c2)cnn1C [378′] | 0 | 6 (Level 6: growth control rate greater than or equal to 70% and less than 80%) | 9 |
| C=C(C)c1c(NC(=O)[C@H]2C(=O)N(C)C[C@@H]2c2cccc(C)c2)cnn1C [379′] | 0 | 6 (Level 6: growth control rate greater than or equal to 70% and less than 80%) | 9 |
| C=CCn1ncc(NC(=O)[C@H]2C(=O)N(C)C[C@@H]2c2cccc(C)c2)c1Cl [381′] | 0 | 6 (Level 6: growth control rate greater than or equal to 70% and less than 80%) | 9 |
| CCn1ncc(NC(=O)[C@H]2C(=O)N(C)C[C@@H]2c2cccc(C)c2)c1Cl [385′] | 2 (Level 2: growth control rate greater than or equal to 10% and less than 20%) | 9 | 9 |
| COCCn1ncc(NC(=O)[C@H]2C(=O)N(C)C[C@@H]2c2cccc(C)c2)c1Cl [386′] | 0 | 6 (Level 6: growth control rate greater than or equal to 70% and less than 80%) | 9 |
| Cc1cccc([C@H]2CN(C)C(=O)[C@@H]2C(=O)Nc2cnn(C)c2F)c1 [388′] | 0 | 6 (Level 6: growth control rate greater than or equal to 70% and less than 80%) | 9 |
| Cc1cccc([C@H]2CN(C)C(=O)[C@@H]2C(=O)Nc2cnn(C)c2Br)c1 [389′] | 0 | 9 | 9 |
| Cc1cccc([C@H]2CN(C)C(=O)[C@@H]2C(=O)Nc2cnn(C)c2C#N)c1 [391′] | 0 | 9 | 9 |
| CCn1ncc(NC(=O)[C@H]2C(=O)N(C)C[C@@H]2c2cccc(C)c2)c1C1CC1 [394′] | 0 | 6 (Level 6: growth control rate greater than or equal to 70% and less than 80%) | 9 |
| Cc1cccc([C@H]2CN(C)C(=O)[C@@H]2C(=O)Nc2cn(C)nc2I)c1 [399′] | 0 | 9 | 9 |
| C=Cc1c(NC(=O)[C@H]2C(=O)N(C)C[C@@H]2c2cccc(C(F)(F)F)c2)cnn1C(F)F [406′] | 2 (Level 2: growth control rate greater than or equal to 10% and less than 20%) | 9 | 9 |
| C=C(C)c1c(NC(=O)[C@H]2C(=O)N(C)C[C@@H]2c2cccc(C(F)(F)F)c2)cnn1C [407′] | 0 | 9 | 9 |
| CCn1ncc(NC(=O)[C@H]2C(=O)N(C)C[C@@H]2c2cccc(C(F)(F)F)c2)c1C1CC1 [408′] | 0 | 9 | 9 |
| CN1C[C@H](c2cccc(C3CC3)c2)[C@@H](C(=O)Nc2cnn(C(F)F)c2Cl)C1=O [413′] | 0 | 9 | 9 |
| Cc1cc(C)cc([C@H]2CNC(=O)[C@@H]2C(=O)Nc2cnn(C)c2Cl)c1 [416′] | 0 | 6 (Level 6: growth control rate greater than or equal to 70% and less than 80%) | 9 |
| Cc1cc(C)cc([C@H]2CN(C)C(=O)[C@@H]2C(=O)Nc2cnn(C(C)C)c2Cl)c1 [419′] | 0 | 9 | 9 |
